Assay results taken from patent publication US10597388B2, “Pyridazinone herbicides” (FMC CORPORATION, priority 2014, dated 2020).

Tests used:
Type in all cases: in vivo
[1] = system: blackgrass (Alopecurus myosuroides); assay: Test A greenhouse herbicide test, postemergence; details: for Plant response rating, Blackgrass: 125 g ai/ha, 0 to 100 scale where 0 is no effect and 100 is complete control; for Blackgrass plant response rating: 500 g ai/ha, 0 to 100 scale, 0 is no effect, 100 is complete control
Outline: (§1)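 Seedlings in a loam soil and sand mix received formulated compound postemergence at the one- to two-leaf stage. Greenhouse holding lasts approximately 10 d, then injury is scored visually relative to untreated plants, 0 meaning no effect and 100 complete control.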

[2] = system: galium (catchweed bedstraw, Galium aparine); assay: Test A greenhouse herbicide test, postemergence
Outline: as §1

[3] = system: barnyardgrass (Echinochloa crus-galli); assay: Test B flooded paddy test; details: 250 g ai/ha, Flood; visual rating on scale of 0 to 100 where 0 is no effect and 100 is complete control; 13 to 15 d after treatment
Outline: (§2)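 Ratings use a 0-100 visual scale, where 100 is complete control, and compare treated plants with controls after 13 to 15 d of greenhouse growth. Compound went straight into paddy water kept 3 cm over the soil surface, applied to seedlings at the 2-leaf stage.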

[4] = system: ducksalad (Heteranthera limosa); assay: Test B flooded paddy test; details: 250 g ai/ha, Flood; visual rating on scale of 0 to 100 where 0 is no effect and 100 is complete control; 13 to 15 d after treatment
Outline: as §2

[5] = system: rice (Oryza sativa); assay: Test B flooded paddy test; details: 250 g ai/ha, Flood; visual rating on scale of 0 to 100 where 0 is no effect and 100 is complete control; 13 to 15 d after treatment
Outline: as §2

[6] = system: sedge, umbrella (small-flower umbrella sedge, Cyperus difformis); assay: Test B flooded paddy test; details: 250 g ai/ha, Flood; visual rating on scale of 0 to 100 where 0 is no effect and 100 is complete control; 13 to 15 d after treatment
Outline: as §2

[7] = system: johnsongrass (Sorghum halepense); assay: Test C greenhouse herbicide test, pre- and postemergence
Outline: (§3)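 Greenhouse pots; pre-em on seeded loam:sand blend, post-em on 2–18 cm plants (1–4 leaf) in sphagnum peat/vermiculite medium. Formulation: non-phytotoxic solvent + surfactant. Read-out: visual % control (0–100) vs controls at 13–15 d.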

[8] = system: nutsedge, yellow (yellow nutsedge, Cyperus esculentus); assay: as above
Outline: as §3

[9] = system: soybean (Glycine max); assay: as above
Outline: as §3

[10] = system: chickweed (common chickweed, Stellaria media); assay: Test C greenhouse herbicide test, postemergence
Outline: (§4)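 Greenhouse postemergence spray on plants 2–18 cm tall; response judged visually after 13–15 d relative to untreated controls using a 0 (none) to 100 (full control) scale.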

[11] = system: kochia (Kochia scoparia); assay: Test C greenhouse herbicide test, postemergence; details: for Plant response rating, Kochia: Postemergence
Outline: as §4

[12] = system: oat, wild (wild oat, Avena fatua); assay: Test C greenhouse herbicide test, postemergence; details: for Plant response rating, Oat, Wild: Postemergence
Outline: as §4

[13] = 125 g ai/ha, 0 to 100 scale where 0 is no effect and 100 is complete control
[14] = 500 g ai/ha, visual rating after approx. 10 d, 0 to 100 scale (0 no effect, 100 complete control)
[15] = Postemergence, 125 g ai/ha, scale 0 to 100, 0 is no effect, 100 is complete control
[16] = Postemergence, 250 g ai/ha, scale 0 to 100, 0 no effect, 100 complete control, 13 to 15 d
[17] = Preemergence, 31 g ai/ha, scale 0 to 100, 0 is no effect, 100 is complete control
[18] = Preemergence, 62 g ai/ha, scale 0 to 100, 0 is no effect, 100 is complete control
[19] = Preemergence, 125 g ai/ha, scale 0 to 100, 0 is no effect, 100 is complete control
[20] = Preemergence, 250 g ai/ha, scale 0 to 100, 0 no effect, 100 complete control
[21] = postemergence, 62 g ai/ha, scale 0 to 100, 0 no effect, 100 complete control
[22] = 125 g ai/ha, scale 0 to 100, 0 is no effect, 100 is complete control
[23] = 250 g ai/ha, scale 0 to 100, 0 no effect, 100 complete control, 13 to 15 d
[24] = Postemergence, 31 g ai/ha, scale 0 to 100 (0 no effect, 100 complete control)
[25] = 31 g ai/ha, scale 0 to 100 (0 no effect, 100 complete control)

## CC(=O)Oc1c(C)nn(C)c(=O)c1-c1c(C)cc(C)c2ccccc12 [Compound 99]
[1]
  Plant response rating, Blackgrass: 60
  Blackgrass plant response rating: 80
[2]; [13]
  Plant response rating, Galium: 100
[2]; [14]
  Plant response rating, Galium: 100
[3]
  Plant response rating, Barnyardgrass: 0
[4]
  Plant response rating, Ducksalad: 0
[5]
  Plant response rating, Rice: 0
[6]
  Plant response rating, Sedge, Umbrella: 0
[7]; [15]
  Plant response rating, Johnsongrass: 10
[7]; [16]
  Plant response rating, Johnsongrass: 5
[7]; [17]
  Plant response rating, Johnsongrass: 0
[7]; [18]
  Plant response rating, Johnsongrass: 0
[7]; [19]
  Plant response rating, Johnsongrass: 0
[7]; [20]
  Johnsongrass plant response rating: 20
[7]; [21]
  Johnsongrass plant response rating: 10
[8]; [15]
  Plant response rating, Nutsedge, Yellow: 75
[8]; [16]
  Plant response rating, Nutsedge, Yellow: 85
[8]; [17]
  Plant response rating, Nutsedge, Yellow: 20
[8]; [18]
  Plant response rating, Nutsedge, Yellow: 70
[8]; [19]
  Plant response rating, Nutsedge, Yellow: 60
[8]; [20]
  Nutsedge, Yellow plant response rating: 90
[8]; [21]
  Nutsedge, Yellow plant response rating: 55
[9]; [15]
  Plant response rating, Soybean: 5
[9]; [16]
  Plant response rating, Soybean: 5
[9]; [17]
  Plant response rating, Soybean: 0
[9]; [18]
  Plant response rating, Soybean: 0
[9]; [19]
  Plant response rating, Soybean: 5
[9]; [20]
  Soybean plant response rating: 20
[9]; [21]
  Soybean plant response rating: 5
[10]; Postemergence, 31 g ai/ha, 0 to 100 scale (0 no effect, 100 complete control)
  Chickweed plant response rating: 90
[10]; [15]
  Plant response rating, Chickweed: 90
[10]; [16]
  Plant response rating, Chickweed: 90
[10]; [21]
  Chickweed plant response rating: 90
[11]; [22]
  Plant response rating, Kochia: 90
[11]; [23]
  Plant response rating, Kochia: 95
[11]; [21]
  Kochia plant response rating: 85
[12]; [22]
  Plant response rating, Oat, Wild: 90
[12]; [23]
  Plant response rating, Oat, Wild: 95
[12]; [21]
  Oat, Wild plant response rating: 70

## Cc1ccc2ccccc2c1-c1c(O)c(C(F)(F)F)nn(C)c1=O [Compound 102]
[1]
  Plant response rating, Blackgrass: 20
  Blackgrass plant response rating: 70
[2]; [13]
  Plant response rating, Galium: 100
[2]; [14]
  Plant response rating, Galium: 100
[3]
  Plant response rating, Barnyardgrass: 0
[4]
  Plant response rating, Ducksalad: 0
[5]
  Plant response rating, Rice: 0
[6]
  Plant response rating, Sedge, Umbrella: 50
[7]; [24]
  Plant response rating, Johnsongrass: 0
[7]; [15]
  Plant response rating, Johnsongrass: 0
[7]; [16]
  Plant response rating, Johnsongrass: 10
[7]; [17]
  Plant response rating, Johnsongrass: 0
[7]; [18]
  Plant response rating, Johnsongrass: 0
[7]; [19]
  Plant response rating, Johnsongrass: 0
[7]; [20]
  Johnsongrass plant response rating: 0
[8]; [24]
  Plant response rating, Nutsedge, Yellow: 20
[8]; [15]
  Plant response rating, Nutsedge, Yellow: 60
[8]; [16]
  Plant response rating, Nutsedge, Yellow: 75
[8]; [17]
  Plant response rating, Nutsedge, Yellow: 15
[8]; [18]
  Plant response rating, Nutsedge, Yellow: 70
[8]; [19]
  Plant response rating, Nutsedge, Yellow: 75
[8]; [20]
  Nutsedge, Yellow plant response rating: 75
[9]; [24]
  Plant response rating, Soybean: 0
[9]; [15]
  Plant response rating, Soybean: 10
[9]; [16]
  Plant response rating, Soybean: 10
[9]; [17]
  Plant response rating, Soybean: 0
[9]; [18]
  Plant response rating, Soybean: 5
[9]; [19]
  Plant response rating, Soybean: 5
[9]; [20]
  Soybean plant response rating: 5
[10]; [24]
  Plant response rating, Chickweed: 95
[10]; [15]
  Plant response rating, Chickweed: 95
[10]; [16]
  Plant response rating, Chickweed: 98
[10]; [21]
  Chickweed plant response rating: 95
[11]; [25]
  Plant response rating, Kochia: 0
[11]; [22]
  Plant response rating, Kochia: 20
[11]; [23]
  Plant response rating, Kochia: 50
[12]; [25]
  Plant response rating, Oat, Wild: 5
[12]; [22]
  Plant response rating, Oat, Wild: 10
[12]; [23]
  Plant response rating, Oat, Wild: 25
